Test results reported in ChEMBL document CHEMBL3885881, “DrugMatrix”.

Organism: Rattus norvegicus
Assay: DrugMatrix - Regimen: Daily Repeat
Format: toxicity, organism-based, Sprague-Dawley
Design: regimen Daily Repeat, gender Male, age 6-8 weeks
Settings: in vivo, po, route oral GAVAGE, […]; for ABSOLUTE BASOPHIL / ABSOLUTE EOSINOPHIL / ABSOLUTE LYMPHOCYTE / ABSOLUTE MONOCYTE / ABSOLUTE SEGMENTED NEUTROPHIL / BASOPHIL / EOSINOPHIL / ERYTHROCYTE COUNT / HEMATOCRIT / HEMOGLOBIN / LEUKOCYTE COUNT / LYMPHOCYTE / MEAN CORPUSCULAR HEMOGLOBIN / MEAN CORPUSCULAR HEMOGLOBIN CONCENTRATION / MONOCYTE / NEUTROPHIL / NUCLEATED RED BLOOD CELLS / PLATELET COUNT: tissue Blood; for ALANINE AMINOTRANSFERASE / ALBUMIN / ALKALINE PHOSPHATASE / ASPARTATE AMINOTRANSFERASE / BLOOD UREA NITROGEN / CARBON DIOXIDE / CHLORIDE / CHOLESTEROL / CREATINE PHOSPHOKINASE / CREATININE / LACTATE DEHYDROGENASE / LIPASE / PHOSPHORUS / POTASSIUM / SODIUM / TOTAL BILIRUBIN / TOTAL PROTEIN / URIC ACID: tissue Plasma
[1] = 10 mg/kg, 120 h, dose level Low, time 5 day
[2] = 1800 mg/kg, 72 h, dose level High, time 3 day
[3] = 1800 mg/kg, 120 h, dose level High, time 5 day

With `CN(CCOc1ccc(CC2SC(=O)NC2=O)cc1)c1ccccn1` (stereo not drawn) [ROSIGLITAZONE] the “ABSOLUTE BASOPHIL” value [1] was 0 CELLS/uL, the “ABSOLUTE EOSINOPHIL” value [1] was 76.67 CELLS/uL and the “ABSOLUTE LYMPHOCYTE” value [1] was 6940.67 CELLS/uL. The “ABSOLUTE MONOCYTE” value [1] was 0 CELLS/uL, the “ABSOLUTE SEGMENTED NEUTROPHIL” value [1] was 749.33 CELLS/uL and the BASOPHIL [1] was 0%. The EOSINOPHIL [1] was 1%, the “ERYTHROCYTE COUNT” value [1] was 4.86 x10E6/uL and the HEMATOCRIT [1] was 32.47%. For the same molecule, the HEMOGLOBIN [1] was 12.6 G/DL, the “LEUKOCYTE COUNT” value [1] was 7.77 x10E3/uL and the LYMPHOCYTE [1] was 89.33%. The “MEAN CORPUSCULAR HEMOGLOBIN” value [1] was 25.9 pg, the “MEAN CORPUSCULAR HEMOGLOBIN CONCENTRATION” value [1] was 38.83 G/DL and the MONOCYTE [1] was 0%. The NEUTROPHIL [1] was 9.67%, the “NUCLEATED RED BLOOD CELLS” value [1] was 0 /100WBC and the “PLATELET COUNT” value [1] was 1021.33 x10E3/uL. The “ALANINE AMINOTRANSFERASE” value [1] was 62 u/L, the ALBUMIN [1] was 3.97 G/DL and the “ALKALINE PHOSPHATASE” value [1] was 357.67 u/L. The “ASPARTATE AMINOTRANSFERASE” value [1] was 91 u/L, the “BLOOD UREA NITROGEN” value [1] was 16.67 mg/dL and the “CARBON DIOXIDE” value [1] was 33.33 mmol/L. For the same molecule, the CHLORIDE [1] was 101 MEQ/L, the CHOLESTEROL [1] was 67.67 mg/dL and the “CREATINE PHOSPHOKINASE” value [1] was 238 u/L. For the same molecule, the CREATININE [1] was 0.13 mg/dL, the “LACTATE DEHYDROGENASE” value [1] was 63.33 u/L and the LIPASE [1] was 13.67 u/L. The PHOSPHORUS [1] was 10.13 mg/dL, the POTASSIUM [1] was 4.62 MEQ/L and the SODIUM [1] was 146.1 MEQ/L. The “TOTAL BILIRUBIN” value [1] was 0.0333 mg/dL, the “TOTAL PROTEIN” value [1] was 5.5 G/DL and the “URIC ACID” value [1] was 0.27 mg/dL. The “ABSOLUTE BASOPHIL” value [2] was 0 CELLS/uL, the “ABSOLUTE EOSINOPHIL” value [2] was 26 CELLS/uL and the “ABSOLUTE LYMPHOCYTE” value [2] was 10365.67 CELLS/uL. The “ABSOLUTE MONOCYTE” value [2] was 125.33 CELLS/uL, the “ABSOLUTE SEGMENTED NEUTROPHIL” value [2] was 983 CELLS/uL and the BASOPHIL [2] was 0%. For the same molecule, the EOSINOPHIL [2] was 0.33%, the “ERYTHROCYTE COUNT” value [2] was 5.03 x10E6/uL and the HEMATOCRIT [2] was 31.87%. For the same molecule, the HEMOGLOBIN [2] was 12.43 G/DL, the “LEUKOCYTE COUNT” value [2] was 11.5 x10E3/uL and the LYMPHOCYTE [2] was 90.67%. For the same molecule, the “MEAN CORPUSCULAR HEMOGLOBIN” value [2] was 24.77 pg, the “MEAN CORPUSCULAR HEMOGLOBIN CONCENTRATION” value [2] was 39.03 G/DL and the MONOCYTE [2] was 0.67%. For the same molecule, the NEUTROPHIL [2] was 8.33%, the “NUCLEATED RED BLOOD CELLS” value [2] was 0 /100WBC and the “PLATELET COUNT” value [2] was 1207.33 x10E3/uL. The “ALANINE AMINOTRANSFERASE” value [2] was 77.67 u/L, the ALBUMIN [2] was 3.97 G/DL and the “ALKALINE PHOSPHATASE” value [2] was 304.33 u/L. For the same molecule, the “ASPARTATE AMINOTRANSFERASE” value [2] was 99.67 u/L, the “BLOOD UREA NITROGEN” value [2] was 14.67 mg/dL and the “CARBON DIOXIDE” value [2] was 29.33 mmol/L. The CHLORIDE [2] was 103 MEQ/L, the CHOLESTEROL [2] was 44.67 mg/dL and the “CREATINE PHOSPHOKINASE” value [2] was 406.67 u/L. The CREATININE [2] was 0.29 mg/dL, the “LACTATE DEHYDROGENASE” value [2] was 107.33 u/L and the LIPASE [2] was 23.33 u/L. It also gave a PHOSPHORUS [2] of 8.37 mg/dL, a POTASSIUM [2] of 4.78 MEQ/L and an SODIUM [2] of 144.7 MEQ/L. For the same molecule, the “TOTAL BILIRUBIN” value [2] was 0.17 mg/dL, the “TOTAL PROTEIN” value [2] was 5.07 G/DL and the “URIC ACID” value [2] was 0.43 mg/dL. The “ABSOLUTE BASOPHIL” value [3] was 0 CELLS/uL, the “ABSOLUTE EOSINOPHIL” value [3] was 16.67 CELLS/uL and the “ABSOLUTE LYMPHOCYTE” value [3] was 4629 CELLS/uL. The “ABSOLUTE MONOCYTE” value [3] was 80.67 CELLS/uL, the “ABSOLUTE SEGMENTED NEUTROPHIL” value [3] was 707 CELLS/uL and the BASOPHIL [3] was 0%. For the same molecule, the EOSINOPHIL [3] was 0.33%, the “ERYTHROCYTE COUNT” value [3] was 5.6 x10E6/uL and the HEMATOCRIT [3] was 34.33%. For the same molecule, the HEMOGLOBIN [3] was 13.27 G/DL, the “LEUKOCYTE COUNT” value [3] was 5.43 x10E3/uL and the LYMPHOCYTE [3] was 85.33%. The “MEAN CORPUSCULAR HEMOGLOBIN” value [3] was 23.8 pg, the “MEAN CORPUSCULAR HEMOGLOBIN CONCENTRATION” value [3] was 38.7 G/DL and the MONOCYTE [3] was 1.33%. For the same molecule, the NEUTROPHIL [3] was 13%, the “NUCLEATED RED BLOOD CELLS” value [3] was 0 /100WBC and the “PLATELET COUNT” value [3] was 1134.33 x10E3/uL. The “ALANINE AMINOTRANSFERASE” value [3] was 160.33 u/L, the ALBUMIN [3] was 3.97 G/DL and the “ALKALINE PHOSPHATASE” value [3] was 307 u/L. The “ASPARTATE AMINOTRANSFERASE” value [3] was 119 u/L, the “BLOOD UREA NITROGEN” value [3] was 16 mg/dL and the “CARBON DIOXIDE” value [3] was 26.67 mmol/L. The CHLORIDE [3] was 98.67 MEQ/L, the CHOLESTEROL [3] was 66.33 mg/dL and the “CREATINE PHOSPHOKINASE” value [3] was 501.67 u/L. For the same molecule, the CREATININE [3] was 0.25 mg/dL, the “LACTATE DEHYDROGENASE” value [3] was 115 u/L and the LIPASE [3] was 9.67 u/L. For the same molecule, the PHOSPHORUS [3] was 7.87 mg/dL, the POTASSIUM [3] was 4.33 MEQ/L and the SODIUM [3] was 141.6 MEQ/L. The “TOTAL BILIRUBIN” value [3] was 0.2 mg/dL, the “TOTAL PROTEIN” value [3] was 5.1 G/DL and the “URIC ACID” value [3] was 0.3 mg/dL.
